Three molecules from patent US20020197244A1, “Compositions and methods for regulating phagocytosis and ICAM-1 expression” (priority 1998, published 2002) can be followed below.

For test [1], the system named is macrophage cell line IC-21. Kind of test: Vybrant Phagocytosis Assay Kit, fluorescein-labeled E. coli K-12 particles. Format: cell-based. Conditions: for phagocytosis, dose-response: STI 0, 0.01, 0.1, 1 mg/ml, Compound I 0.01, 0.1, 1 nM, FIG. 4A, 4B; for % effect (ingestion): treated overnight, 100 nM Compound I, 5 μM SLIGRL, 0.1 mg/ml STI, untreated control = 100, one experiment of three. As for the experimental part: To better quantify the level of phagocytosis, the “Vybrant™ Phagocytosis Assay Kit” of Molecular Probes (Eugene, Oreg.) was used, following manufacturer's instructions, with modification of cell culture conditions for the IC-21 cell line. This kit uses Fluorescein-labeled E. coli K-12 particles, and is designed for quantifying the effects of drugs or other environmental factors on phagocytic functions. Macrophages were treated overnight with 100 nM of Compound I, 5 μM of SLIGRL, or 0.1 mg/ml of STI, all dissolved in PBS. The ability of the treated macrophages to ingest the fluorescent E. coli, as measured by this kit, is documented in Table 1. This experiment was repeated three times.
In order to verify the quantitative nature of the macrophage-phagocytosis assay, a dose-response experiment was performed. Macrophages were treated with 0, 0.01, 0.1 and 1 mg/ml of STI, and the experiment was performed as described in Example 3. […] Each experiment was repeated three times.

For another test, the system named is ICAM-1. Description: ICAM-1 immunofluorescent staining of keratinocytes. The class given is cell-based, human. As to conditions: vs untreated keratinocytes; FIG. 6A. As for the experimental part:
Intercellular adhesion molecule-1 (ICAM-1) is an inducible cell-surface glycoprotein that is implicated in cell-cell adhesion, cell membrane raffling and phagocytosis. Therefore, the effect of PAR-2 modulation on ICAM-1 was tested. Keratinocytes were grown in chamber slides and treated with SLIGRL, Compound I and STI as described, followed by immunofluorescent staining for ICAM-1 using standard procedures. Normal donkey serum, (used at 1:5 dilution), was obtained from Jackson Immunoresearch Laboratory (Westgrove, Pa.). A polyclonal goat anti-human ICAM-1 antibody, (used at 1:200 dilution), was obtained from R&D Systems (Minneapolis, Minn.), and FITC-conjugated donkey anti-goat antibody was obtained from Jackson Immunoresearch Laboratory. […] In untreated keratinocytes, ICAM-1 was localized mainly to the plasma membrane, with some staining at the nuclear membrane.

Test [2] concerns human keratinocyte cell line HaCaT. Description: Fluorescent microsphere ingestion by keratinocyte cell line HaCaT. The class given is cell-based. As to conditions: FIG. 2. As for the experimental part: In order to study the role of the PAR-2 pathway in phagocytosis, several in vitro model systems were used. One system used contained primary human keratinocytes or a human keratinocyte cell line. In this and a number of following examples, cells were treated with test compounds for different amounts of time (from one hour to three days), and samples were then incubated with fluorescent microspheres for two hours. The beads ingested by the cells were photographed using fluorescence microscopy.
(§1) In this example, human primary keratinocytes or the human keratinocyte cell line HaCaT were used as in vitro model systems to study the effect of PAR-2 regulators on keratinocyte phagocytosis. The human primary keratinocytes used are commercially available from Clonetics (San Diego, Calif.). Cells were plated on chamber slides, at 2 chambers/slide and 60,000 cells/chamber. Cells were treated once daily, for two or three days, with Compound I (1μM), SLIGRL (10μM), or vehicle (Phosphate-buffered saline, (“PBS”) from Gibco-BRL (Gaithersburg, Md.). After two or three days of exposure to the test compounds, cells were exposed to Nile-red or FITC fluorescent microspheres, 1 μm in diameter, 50 microspheres/cell, for two hours at 37° C. Microspheres were from Molecular Probes (Eugene, Oreg.), and were processed according to manufacturer's instructions. Following that treatment, cells were incubated with 15% Fetal Bovine Serum (“FBS”, from Gibco-BRL), for 15 minutes at 37° C. and rinsed with PBS. At that time, chambers were separated from the slides, and the slides were covered with glycerol and coverslips. Fluorescent microscopy was performed using a Zeiss Axiovert 35 or a Nikon Optiphot-2 microscope.
The same results were also obtained when the human keratinocyte cell line HaCaT was used instead of the primary keratinocytes (see FIG. 2). SLIGRL, STI and Compound I were tested for their effect on keratinocyte phagocytosis. In these experiments, the extracellular accumulation of microspheres could be washed off. […]

Test [3] relates to macrophage cell line IC-21. Kind of test: Fluorescent microsphere ingestion by macrophages. The class given is cell-based. Conditions: IC-21 macrophages. As to the method:
as §1
The experiment described in Example 1 was repeated using the macrophage cell line IC-21 (obtained from the ATCC), which shares phagocytic characteristics with peritoneal macrophages. As shown for keratinocytes and fibroblasts, Compound I and STI reduced, and SLIGRL increased, the number of microspheres ingested by these macrophages which are “professional phagocytic” cells.

In a further test the test system is Human keratinocytes. Kind of test: Keratinocyte microsphere phagocytosis dose-response, image analysis. The class given is cell-based. Conditions: two days; for phagocytosis with increasing concentrations: SLIGRL 0, 5 and 10M, Compound I 1 pM to 1 μM, STI 0.01 to 1 mg/ml; for % Ingestion: untreated = 100 +/− 12. As to the method:
as §1
Dose-response Relationship Between PAR-2 Signaling and Keratinocyte Phagocytosis Human keratinocytes were treated with increasing concentrations of SLIGRL, the PAR-2 peptide activator and agonist, at 0, 5 and 10M for two days in the same manner as set forth in Example 1. […] Human keratinocytes were also treated with increasing concentrations of Compound I and STI for two days.
Image analysis of the fluorescent beads inside the keratinocytes was used as an alternative way to quantify the phagocytic effect in this system. Empire Imagins Database Version 1.1 was used on a Gateway 2000 P5-100 computer (Media Cybernetics, Silver Springs, Md.) for capturing images. Image Pro Plus version 1.3 was used for measurements, and Microsoft Excel version 5.0 was used for data processing. Data obtained from this keratinocyte-microsphere system were in full agreement with data from the macrophage/E. coli system.

Test [4] relates to Keratinocytes. Kind of test: Melanin/melanosome uptake by keratinocytes, Fontana-Mason staining. The class given is cell-based. Conditions: treated two days, melanin two hours; FIG. 5A; same results with isolated melanosomes (FIG. 5B). As to the method:
This example tests the ability of keratinocytes to acquire melanin or melanosomes in vitro, and thus function as a simplified system for melanosome uptake in the skin. Keratinocytes were plated in glass chamber-slides as described earlier, and were treated for two days with SLIGRL, Compound I or STI. At that time, melanin powder (from Sigma, St. Louis, Mo.) was mixed in sterile PBS at 10 μg/ml, and was added to the culture media (1:10 dilution) for two hours. Cells were then washed with PBS and stained with Fontana-Mason (“F&M”) staining. F&M stains silver nitrate-reducing molecules, thereby permitting the identification of melanins inside the keratinocytes. […] This system, therefore, can mimic melanosome transfer and melanin distribution in vivo, as skin keratinocytes use melanin as an UV-protective cap over their nuclei. […] The same results were also observed using melanosomes isolated as described in S. Orlow, et al., J.I.D. 100:55-64 (1993) (FIG. 5B).

The subject of test [5] is Keratinocytes. Description: F-actin staining of keratinocytes. As to conditions: Compound I 10 nM, STI 0.1 mg/ml, SLIGRL 5 μM; FIG. 9. The class given is cell-based. As for the experimental part: Therefore, the organization of F-actin filaments following PAR-2 modulation was tested. Keratinocytes were treated with Compound I (10 nM), STI (0.1 mg/ml), or with SLIGRL (5 μM) as described in Example 1, and stained for F-actin using standard techniques.

Take SLIGRL [reference compound]: in test [1], the “phagocytosis, dose-response” value is given as “increase in phagocytosis” and the “% effect (ingestion)” value was 331.6 +/− 5.9%. In the test with ICAM-1, the “intracellular localization of ICAM-1” value is “increased and more diffused cytoplasmic membrane staining, and reduced nuclear membrane staining”. In test [2], the microsphere ingestion entry is “increased microsphere ingestion”. The “number of microspheres ingested” value in test [3] is recorded as “increased”. Besides, in the test with Human keratinocytes, the “phagocytosis with increasing concentrations” value was “increased phagocytosis”. Moreover, the “uptake (internalization) of melanin by keratinocytes” value (from here on “uptake (internalization) of melanin”) with Keratinocytes [4] was “dramatically increases the internalization of melanin”. For the same molecule, the actin filaments organization result with Keratinocytes [5] is on record as “induced actin polymerization around the cell cortex”.

`CN[C@H](Cc1ccccc1)C(=O)N1CCCC1C(=O)N[C@@H](CCCNC(=N)N)C(=O)c1nc2ccccc2s1` (stereo partly drawn) [Compound I, (S)-N-Methyl-D-phenylalanyl-N-[4-[(aminoiminomethyl)amino]-1-(2-benzothiazolylcarbonyl)butyl]-L-prolinamide]: the “% effect (ingestion)” value in test [1] was 89.9 +/− 13.6%. The “intracellular localization of ICAM-1” value with ICAM-1 was “less staining was observed at the cytoplasmic membrane, and more at the nuclear membrane”. Besides, the microsphere ingestion entry in test [2] was “reduce microsphere ingestion”. Also, the “number of microspheres ingested” value in test [3] is on record as “reduced”. The “phagocytosis with increasing concentrations” value in the test on Human keratinocytes is “dose-dependent decrease in phagocytosis”. Also, the “uptake (internalization) of melanin” value in the test with Keratinocytes [4] is given as “dramatically reduce the uptake of melanin”. The actin filaments organization result in the test with Keratinocytes [5] is “reduced the ordered organization of the cell cortex”.

B1: STI: Soybean trypsin inhibitor, a serine protease inhibitor capable of affecting the PAR-2 pathway (protein, UniProt P01070 25-205, looked up)
Trypsin inhibitor A: DFVLDNEGNPLENGGTYYILSDITAFGGIRAAPTGNERCPLTVVQSRNELDKGIGTIISSPYRIRFIAEGHPLSLKFDSFAVIMLCVGIPTEWSVVEDLPEGPAVKIGENKDAMDGWFRLERVSDDEFNNYKLVFCPQQAEDDKCGDIGISIDHDDGTRRLVVSKNKPLVVQFQKLDKESL
On to B1, for which the “phagocytosis, dose-response” value in test [1] is “dose-response of decreased phagocytosis”. In addition, the “% effect (ingestion)” value in test [1] is given as 56.06 +/− 12.4%. The “intracellular localization of ICAM-1” value with ICAM-1 was “less staining was observed at the cytoplasmic membrane, and more at the nuclear membrane”. The microsphere ingestion entry in test [2] is reported as “reduce microsphere ingestion”. The “number of microspheres ingested” value in test [3] was “reduced”. Besides, the results for the “% Ingestion” value with Human keratinocytes (STI 0.01%), in the test with Human keratinocytes (STI 0.1%) and in the test with Human keratinocytes (STI 1%) were 76 +/− 15%, 55 +/− 14% and 41.6 +/− 11%, respectively. Further, the “phagocytosis with increasing concentrations” value in the test with Human keratinocytes was “dose-dependent decrease in phagocytosis”. In addition, in the test with Keratinocytes [4], the “uptake (internalization) of melanin” value is given as “dramatically reduce the uptake of melanin”. The actin filaments organization entry in the test with Keratinocytes [5] is “reduced the ordered organization of the cell cortex”.
